Measured values: article PMC3836617 (Pharmaceutics, 2013)
Values joined by “and” are separate entries in the source; they are usually repeats but may differ in a detail not shown here. Identical values can stand only once. Like-named read-outs stand apart in the source and are kept apart here. Blank lines part the entries; values can stand above or below the molecule they belong to.

Legend:
[1] = for Permeated amount after 12 h: full-thickness skin preincubated with 2 mM BNPP 1 h
Protocol: (§3) Fresh excised abdominal skin was used for these experiments. To strip skin, stratum corneum was removed by 20 successive strippings using cellophane adhesive tape (Nichiban K.K., Japan) according to conventional methods. The excised skin was mounted between half-cells with the dermal side in contact with receptor fluid (pH 6.8 phosphate-buffered saline (PBS) with 3% BSA). Receptor fluid flow rate was 5 mL/h. Two milliliters of drug suspension (drug amount = twice the amount required for saturation) in pH 4.0 acetate buffer was added to the donor chamber.
In an inhibition study for CES, skin mounted between the half-cells was preincubated with the dermal side in contact with 2 mM BNPP (dissolved in pH 6.8 PBS containing 3% BSA) for 1 h.
(§4) The in vitro permeation parameters were calculated from the penetration data using the following equations: Js = (KmDC)/δ = KpC and τ = δ^2/6D, where Js is steady state flux, Km is the solvent membrane partition coefficient of drug, D is diffusion coefficient, C is drug concentration in donor chamber, δ is thickness of rat skin, Kp is the permeability coefficient of drug, and τ represents lag time.

[2] = for Permeated amount after 12 h: labelled species found in receptor fluid
Protocol: as §3, §4

[3] = cited from earlier work
[4] = Hydrolysis in rat skin S9 fraction; format: in vitro ADME; conditions: for Hydrolysis in skin S9 relative to liver microsomes (slower) / Vmax in skin S9 relative to liver microsomes (smaller) / Vmax/Km in skin S9 relative to liver microsomes (smaller): skin S9 vs liver microsomes
Protocol: After hair was carefully clipped and shaved, rats were sacrificed by exsanguination under ether anesthesia. Abdominal and dorsal skin was removed using a scalpel and dissection scissors. A few pieces of skin were stored in liquid nitrogen for extraction of total RNA. The skin was minced, mixed with five volumes of ice-cold 4-(2-hydroxyethyl)-1-piperazineethanesulfonic acid (HEPES) buffer (50 mM, pH 7.4) containing 0.15 M KCl, and homogenized using a Polytron (Kinematica, Lucerne, Switzerland) on ice. Whole homogenate was filtered through a funnel containing buffer-soaked cotton wool. After centrifugation of the skin homogenate at 9000g for 20 min at 4 °C, the supernatant fraction (S9) was obtained. Protein content was determined by the method described by Bradford using bovine serum albumin (BSA) as standard. The skin S9 was stored at −80 °C until use.
(§1) Hydrolysis of PNPA, PNPB, and caproyl-PL were performed in S9 and microsomal fractions of rat liver, testis, kidney and skin. Tissue samples were diluted with 50 mM HEPES (pH 7.4) buffer at appropriate protein concentrations and preincubated for 5 min at 37 °C. The hydrolysis reaction was initiated by the addition of test compounds dissolved in dimethyl sulfoxide (DMSO). The final concentration of DMSO was less than 0.5%, which has no effect on hydrolytic activity. The rate of hydrolysis of PNPA and PNPB (final concentrations 15–500 μM) was determined by the initial linear increase in absorbance of p-nitrophenol at 405 nm (V-530, JASCO Co., Tokyo, Japan).
For the hydrolysis of caproyl-PL, the reaction was terminated by addition of 5 mL ethylacetate. After extraction of PL, as previously described, stereoselective determination was carried out using high-performance liquid chromatography (HPLC).

[5] = Nonenzymatic hydrolysis of caproyl-PL to PL in buffer; format: physicochemical
Protocol: Hydrolysis was greater under basic buffer conditions […]. […] The hydrolysis of caproyl-PL was <0.05% during the sampling period (1 h) at pH 6.8 in PBS containing 3% BSA.

[6] = Hydrolysis in rat kidney microsomes; format: in vitro ADME; conditions: pH 7.4; for Vmax: kidney microsomes; for Km: kidney microsomes 10 μg/mL
Protocol: (§2) The excised liver, kidney, and testis were washed with ice-cold 0.15 M KCl, and finely minced using scissors. Minced tissues were homogenized with 3 volumes of 50 mM HEPES buffer (pH 7.4) containing 0.15 M KCl in a Potter–Elvehjem glass homogenizer equipped with a Teflon pestle under ice-cold conditions. Homogenates (25% wet w/v) were centrifuged at 9000g for 20 min at 4 °C, to give the S9 fraction. S9 fraction was further centrifuged at 100,000g for 1 h at 4 °C. The resulting pellets were resuspended in 50 mM HEPES buffer (pH 7.4) containing 0.15 M KCl to prepare the microsomal fraction. Protein concentrations were determined by the method of Bradford using BSA as standard. S9 and the microsomal fraction were stored at −80 °C until use.
as §1

[7] = Hydrolysis in rat testis microsomes; format: in vitro ADME; conditions: pH 7.4; for Km: testis microsomes 10 μg/mL for PNPA, 5 μg/mL for PNPB; for Vmax: testis microsomes
Protocol: as §2, §1

[8] = Hydrolysis in rat liver microsomes; format: in vitro ADME; conditions: pH 7.4; for Vmax: liver microsomes; for Km: liver microsomes 20 μg/mL for PNPA, 10 μg/mL for PNPB
Protocol: as §2, §1

[9] = system: esterases of rat skin S9; experiment: Native PAGE esterase activity staining of rat skin S9 with 1-naphthylacetate; format: biochemical; conditions: native PAGE stained with 1-naphthylacetate
[10] = after application of PL, stripped skin
[11] = after application of caproyl-PL, labelled species, stripped skin
[12] = after application of PL, full-thickness skin with BNPP
[13] = after application of caproyl-PL, labelled species
[14] = after application of caproyl-PL, labelled species, full-thickness skin with BNPP
[15] = after application of PL, full-thickness skin
[16] = after application of caproyl-PL, full-thickness skin, n = 6
[17] = after application of caproyl-PL, labelled species, full-thickness skin
[18] = after application of caproyl-PL, total, stripped skin
[19] = after application of caproyl-PL, total, full-thickness skin with BNPP
[20] = after application of caproyl-PL, total of caproyl-PL and PL, full-thickness skin
[21] = caproyl-PL applied to full-thickness skin
[22] = hydrolysis, skin S9 300 μg/mL, 50 mM HEPES pH 7.4

Amount permeated after 12 h [10]: 17,000 ± 3,600 nmol
Lag time [10]: 1.4 ± 0.36 h
Skin concentration at 12 h [10]: 6,900 ± 3,700 nmol/g tissue
Lag time [11]: 3.6 ± 0.38 h
Permeated amount after 12 h [11]: 190 ± 55 nmol
Skin concentration at 12 h [11]: 870 ± 44 nmol/g tissue
Steady state flux [11]: 22 ± 6.4 nmol/h
Amount permeated after 12 h [1, 12]: 2,600 ± 990 nmol
Lag time [1, 12]: 0.84 ± 0.24 h
Skin concentration at 12 h [1, 12]: 9,900 ± 590 nmol/g tissue
Steady state flux [1, 12]: 240 ± 87 nmol/h
Permeated amount after 12 h [1, 13]: 21 ± 18 nmol
Lag time [1, 14]: 6.3 ± 0.93 h
Skin concentration at 12 h [1, 14]: 130 ± 7.7 nmol/g tissue
Steady state flux [1, 14]: 3.5 ± 2.6 nmol/h
Lag time [2, 15]: 1.5 ± 0.56 h
Skin concentration at 12 h [2, 15]: 9,400 ± 380 nmol/g tissue
Steady state flux [2, 15]: 240 ± 94 nmol/h
Amount permeated after 12 h ([2]; after application of PL, full-thickness skin, n = 6): 2,600 ± 970 nmol
Permeated amount after 12 h [2, 16]: 140 ± 35 nmol
Lag time [2, 17]: 4.9 ± 1.1 h
Skin concentration at 12 h [2, 17]: 550 ± 120 nmol/g tissue
Steady state flux [2, 17]: 20 ± 6.2 nmol/h
Compound: CC(C)NCC(O)COc1cccc2ccccc12 (stereo not drawn) [PL, propranolol]

Compound: CCCCCC(=O)OC(CNC(C)C)COc1cccc2ccccc12.Cl (stereo not drawn) [Caproyl-PL, O-caproyl-PL hydrochloride]
Steady-state flux and Kp values of intact caproyl-PL in stripped skin relative to full-thickness skin (greater) (after application of caproyl-PL): 6 fold
Lag time [11]: 4.7 ± 1.7 h
Permeated amount after 12 h [11]: 12 ± 13 nmol
Skin concentration at 12 h [11]: 3,200 ± 580 nmol/g tissue
Steady state flux [11]: 2.4 ± 0.98 nmol/h
Skin concentration at 12 h (after application of caproyl-PL, labelled species, stripped skin, listed as caproyl-PL): 3200 ± 580 nmol/g tissue
Permeated amount after 12 h, Total (after application of caproyl-PL, total of caproyl-PL and PL, stripped skin): 200 ± 50 nmol
Lag time, Total [18]: 3.6 ± 0.43 h
Skin concentration at 12 h, Total [18]: 4,100 ± 600 nmol/g tissue
Steady state flux, Total [18]: 23 ± 5.5 nmol/h
Permeation clearance from viable skin to receptor fluid (calculated from steady-state flux and cutaneous concentration in stripped skin): 0.75 mg tissue/h
Concentration of caproyl-PL in stripped skin relative to Km value (higher) (vs Km in skin S9): 160 fold
log PC ([3]; between 1-octanol and pH 4.0 phosphate buffer, method and reference not given): 2.3
pKa ([3]; stated in discussion, method and reference not given): 9.1
Constant concentration in donor compartment (suspension) ([3]; suspension in pH 4.0 acetate buffer): 6.4 mM
Permeated amount after 12 h [1, 13]: 3.9 ± 3.4 nmol
Lag time [1, 14]: 8.3 ± 1.2 h
Skin concentration at 12 h [1, 14]: 2,100 ± 220 nmol/g tissue
Steady state flux [1, 14]: 0.83 ± 0.65 nmol/h
Lag time, Total [1, 19]: 6.4 ± 0.92 h
Permeated amount after 12 h, Total [1, 19]: 25 ± 21 nmol
Skin concentration at 12 h, Total [1, 19]: 2,200 ± 230 nmol/g tissue
Steady state flux, Total [1, 19]: 4.1 ± 3.1 nmol/h
Permeated amount, steady state flux and Kp value of intact caproyl-PL, increase by treatment with BNPP ([1]; full-thickness skin with vs without BNPP): 2 fold
Vmax ([4]; hydrolysis of caproyl-PL in rat skin S9): 9.24 ± 2.95 nmol/min/mg S9 protein
Km ([4]; hydrolysis of caproyl-PL in rat skin S9, read-out: Km value): 19.7 ± 5.36 µM
Hydrolysis in skin S9 relative to liver microsomes (slower) [4]: 20 fold
Skin concentration of caproyl-PL relative to PL (higher) ([2]; 12 h after dosing caproyl-PL, full-thickness skin): 3.5 fold
Permeated amount after 12 h [2, 16]: 1.7 ± 1.4 nmol
Lag time [2, 17]: 7.0 ± 0.78 h
Skin concentration at 12 h [2, 17]: 1,900 ± 630 nmol/g tissue
Steady state flux [2, 17]: 0.40 ± 0.28 nmol/h
Skin concentration at 12 h ([2]; after application of caproyl-PL, labelled species, full-thickness skin, listed as caproyl-PL): 1900 ± 630 nmol/g tissue
Lag time, Total [2, 20]: 4.9 h and 4.9 ± 1.1 h
Permeated amount after 12 h, Total [2, 20]: 140 ± 33 nmol
Skin concentration at 12 h, Total [2, 20]: 2,400 ± 780 nmol/g tissue
Steady state flux, Total [2, 20]: 20 ± 6.1 nmol/h
Predicted concentration of caproyl-PL in viable epidermis and dermis ([2]; after application to full-thickness skin, estimated from flux and permeation clearance): about 500 nmol/g tissue
Dose retained in the stratum corneum [2, 21]: 75%
Dose transferred into viable skin [2, 21]: 25%
Predicted concentration in viable epidermis and dermis relative to Km value (higher) ([2]; full-thickness skin): 25 fold
Nonenzymatic hydrolysis of caproyl-PL to PL ([5]; in 12 h, pH 4.0 acetate buffer): < 0.1%
Nonenzymatic hydrolysis of caproyl-PL ([5]; sampling period 1 h, pH 6.8 PBS containing 3% BSA): < 0.05%

Compound: O=[N+]([O-])c1ccc(OP(=O)(O)Oc2ccc([N+](=O)[O-])cc2)cc1 [BNPP, bis-p-nitrophenyl phosphate]
PL conversion from caproyl-PL after treatment with BNPP ([1]; 2 mM BNPP on receiver side for 1 h, full-thickness skin): markedly decreased

Km ([6]; rat): 268 ± 83.8 µM
Km ([7]; male, rat): 34.6 ± 1.27 µM
Km ([4]; rat, skin S9 fraction, hydrolysis, skin S9 300 μg/mL, 50 mM HEPES pH 7.4, 37 °C, mean ± S.D. (n = 3/4), read-out: Km): 55.5 ± 8.18 µM
Hydrolysis in skin S9 relative to liver microsomes (slower) [4]: around 20 fold
Vmax in skin S9 relative to liver microsomes (smaller) [4]: 19 fold
Vmax/Km in skin S9 relative to liver microsomes (smaller) [4]: 21 fold
Km ([8]; rat): 57 ± 18.2 µM
Compound: CC(=O)Oc1ccc([N+](=O)[O-])cc1 [PNPA, p-nitrophenylacetate]
Vmax [6]: 2,432 ± 497 nmol/min/mg protein
Vmax [7]: 1,606 ± 333 nmol/min/mg protein
Vmax [4, 22]: 188 ± 30.3 nmol/min/mg protein
Vmax [8]: 3,570 ± 810 nmol/min/mg protein

Compound: CCN(CC)C(C)CN1c2ccccc2Sc2ccccc21 (stereo not drawn) [ethopropazine]
Inhibition of formation of esterase bands of skin S9 [9]: not inhibited

Km [6]: 97 ± 16.6 µM
Km [7]: 63.4 ± 13.9 µM
Km ([4]; hydrolysis, skin S9 300 μg/mL, 50 mM HEPES pH 7.4, 37 °C, mean ± S.D. (n = 3/4), read-out: Km): 97.1 ± 30.2 µM
Hydrolysis in skin S9 relative to liver microsomes (slower) [4]: around 20 fold
Vmax in skin S9 relative to liver microsomes (smaller) [4]: 9 fold
Vmax/Km in skin S9 relative to liver microsomes (smaller) [4]: 24 fold
Km [8]: 37.1 ± 9.42 µM
Compound: CCCC(=O)Oc1ccc([N+](=O)[O-])cc1 [PNPB, p-nitrophenylbutyrate]
Vmax [6]: 994 ± 286 nmol/min/mg protein
Vmax [7]: 2,978 ± 398 nmol/min/mg protein
Vmax [4, 22]: 460 ± 127 nmol/min/mg protein
Vmax [8]: 4,220 ± 521 nmol/min/mg protein
